The values below come from article PMC4877593, “Design and Synthesis of Potent in Vitro and in Vivo Anticancer Agents Based on 1-(3′,4′,5′-Trimethoxyphenyl)-2-Aryl-1H-Imidazole” (Scientific Reports, 2016).

Read-outs that look alike come from different tables or passages of the source.

Data set [1] relates to HeLa. The data set can be described thus: In vitro antiproliferative activity (MTT), HeLa. The class given is cell-based. Conditions: Homo sapiens, tumor cell proliferation, 72 h, mean ± SE. How it is done:
(§1) Human T-cell leukemia (CCRF-CEM and Jurkat) and human B-cell leukemia (SEM) cells were grown in RPMI-1640 medium (Gibco, Milano, Italy). Breast adenocarcinoma (MCF7), human cervix carcinoma (HeLa), and human colon adenocarcinoma (HT-29) cells were grown in DMEM medium (Gibco, Milano, Italy), all supplemented with 115 units/mL penicillin G (Gibco, Milano, Italy), 115 μg/mL streptomycin (Invitrogen, Milano, Italy), and 10% fetal bovine serum (Invitrogen, Milano, Italy). Stock solutions (10 mM) of the different compounds were obtained by dissolving them in dimethyl sulfoxide (DMSO). Individual wells of a 96-well tissue culture microtiter plate were inoculated with 100 μL of complete medium containing 8 × 10^3 cells. The plates were incubated at 37 °C in a humidified 5% CO2 incubator for 18 h prior to the experiments. After medium removal, 100 μL of fresh medium containing the test compound at different concentrations was added to each well in triplicate and incubated at 37 °C for 72 h. The percentage of DMSO in the medium never exceeded 0.25%. This was also the maximum DMSO concentration in all cell-based assays described below. […] Different concentrations of the test compounds were added, and viability was determined 72 h later by the MTT test. For cytotoxicity evaluations in resting PBL cultures, non-adherent cells were resuspended (5 × 10^5 cells/mL) and treated for 72 h with the test compounds, as described above.

In data set [2] the test system is HT-29. The data set can be described thus: In vitro antiproliferative activity (MTT), HT-29. It is filed as cell-based. The note with it: Homo sapiens, tumor cell proliferation, 72 h, mean ± SE. Here is the method: as §1
The test system of data set [3] is A549. Briefly: In vitro antiproliferative activity (MTT), A549. The class given is cell-based. Conditions: Homo sapiens, tumor cell proliferation, 72 h, mean ± SE. Here is the method: as §1
Data set [4] concerns MCF-7. The data set can be described thus: In vitro antiproliferative activity (MTT), MCF-7. It is filed as cell-based. The note with it: Homo sapiens, MCF7, tumor cell proliferation, 72 h, mean ± SE. How it is done:
as §1

Data set [5] deals with Jurkat. Briefly: In vitro antiproliferative activity (MTT), Jurkat. The note with it: Homo sapiens, tumor cell proliferation, 72 h, mean ± SE. It is filed as cell-based. Here is the method: as §1
For data set [6], the system named is RS4;11. The data set can be described thus: In vitro antiproliferative activity (MTT), RS4;11. It is filed as cell-based. Conditions: Homo sapiens, tumor cell proliferation, 72 h, mean ± SE.
Data set [7] concerns HL-60. The data set can be described thus: In vitro antiproliferative activity (MTT), HL-60. The note with it: Homo sapiens, tumor cell proliferation, 72 h, mean ± SE. The class given is cell-based.
Data set [8] deals with panel of seven human tumor cell lines. The data set can be described thus: Antiproliferative activity across the panel of seven human tumor cell lines. The class given is cell-based. Here is the method:
as §1

Data set [9] relates to bovine brain tubulin. Briefly: Inhibition of tubulin polymerization (turbidimetry). The class given is biochemical. Here is the method:
To evaluate the effect of the compounds on tubulin assembly in vitro[22], varying concentrations of compounds were preincubated with 10 μM bovine brain tubulin in glutamate buffer at 30 °C and then cooled to 0 °C. After addition of 0.4 mM GTP (final concentration), the mixtures were transferred to 0 °C cuvettes in a recording spectrophotometer equipped with an electronic temperature controller and warmed to 30 °C. Tubulin assembly was followed turbidimetrically at 350 nm. […] The ability of the test compounds to inhibit colchicine binding to tubulin was measured as described, except that the reaction mixtures contained 1 μM tubulin, 5 μM [^3H]colchicine and 1 or 5 μM test compound.

Data set [10] concerns tubulin. The data set can be described thus: Inhibition of [3H]colchicine binding to tubulin. On the set-up: species or system bovine. Conditions: tubulin 1 μM, [3H]colchicine 5 μM.
Description: The ability of the test compounds to inhibit colchicine binding to tubulin was measured as described[22], except that the reaction mixtures contained 1 μM tubulin, 5 μM [^3H]colchicine and 1 or 5 μM test compound.
In data set [11] the test system is HCT-15 (human colon adenocarcinoma). The note with it: cited from earlier work.
The test system of data set [12] is NCI-H460 (human lung large cell carcinoma). Conditions: cited from earlier work.
Data set [13] concerns panel of seven human tumor cell lines. The note with it: previously published triazole; ref 16d; read-out: IC50 values in the same seven cell lines (range); cited from earlier work.
In data set [14] the test system is tubulin. The note with it: read-out: IC50 inhibitor of tubulin polymerization; cited from earlier work.
[15] abbreviates: average over the seven cell lines, read-out: average IC50 values.
Where [16] appears, read: range over seven cancer cell lines, read-out: IC50 values in the seven cell lines (range).
[17] abbreviates: tubulin at 10 μM, 20 min incubation, read-out: Tubulin assembly IC50 ± S.D.

Turning to `COc1cc(-n2ccnc2-c2ccc3ccccc3c2)cc(OC)c1OC` [Compound 3c, reference compound], the IC50 (in general, the point on the concentration scale where inhibition reaches its midpoint) in data set [1] came to 2 ± 0.14 nM; in data set [2] it was 3.6 ± 0.9 nM; in data set [3], 7.1 ± 1.5 nM; in data set [4] it was 4.6 ± 2.3 nM; in data set [5], 2.5 ± 0.9 nM; in data set [6], 62.3 ± 10.3 nM. In addition, the IC50 in [7] is 24 ± 12.1 nM; in data set [8] (setting [15]), 15 nM; in data set [8] (setting [16]), 2 to 62.3 nM; in data set [9] (repeated beside the calculated energies, read-out: inhibition of tubulin polymerization IC50 (Table 4)), 1800 nM; in data set [9] (setting [17]), 1800 nM; in data set [11], 51 nM. Besides, the IC50 in data set [12] is 57 nM. For the same compound, the “Colchicine binding % inhibition ± S.D., 5 μM drug” value in [10] amounted to 65 ± 4%.

Take “1-(3′,4′,5′-trimethoxyphenyl)-5-(3′-chloro-4′-ethoxyphenyl) triazole”: the IC50 in [13] is 3 to 20 nM.

`CCOc1ccc(-c2nccn2-c2cc(OC)c(OC)c(OC)c2)cc1F` [Compound 4n, 2-(3′-Fluoro-4′-ethoxyphenyl)-1-(3′,4′,5′-trimethoxyphenyl)-1H-imidazole]: the melting point (as a rule, the temperature of the solid-liquid transition) lay in the range of 127 to 129 °C. For the same compound, the IC50 in data set [1] worked out at 1.5 ± 0.32 nM. In [2], this compound showed an IC50 of 7.5 ± 1.2 nM. For the same compound, inhibition in data set [3] was half-maximal at 14 ± 2.3 nM (IC50). It took 3.4 ± 0.38 nM to reach half-maximal inhibition in [4] (IC50). The same compound yielded an IC50 in [5] of 12 ± 6.6 nM. In data set [6], the midpoint of inhibition, the IC50, lay at 8.6 ± 1.1 nM. The same compound displayed an IC50 in data set [7] of 3.5 ± 0.73 nM. Besides, the IC50 in data set [8] (setting [15]) was determined as 7.2 nM. The IC50 in [8] (setting [16]) lay in the range of 1.5 to 14.2 nM. Moreover, the IC50 in data set [9] (setting [17]) amounted to 570 nM.

On to `COc1cc(-n2ccnc2-c2ccc(N(C)C)cc2)cc(OC)c1OC` [Compound 3a, 1-(3′,4′,5′-trimethoxyphenyl)-2-(4′-N,N-dimethylaminophenyl)-1H-imidazole], for which the IC50 in data set [11] is 80 nM; in data set [12], 270 nM; in [14] it was 35000 nM.

In the case of `COc1ccc(-c2nccn2-c2cc(OC)c(OC)c(OC)c2)cc1` [Compound 3b, reference compound], the IC50 was determined as 210 ± 10.2 nM in data set [1]; 233 ± 52 nM in [2]; 1010 ± 104 nM in data set [3]; 230 ± 55 nM in data set [4]; 133 ± 31 nM in [5]; 5400 ± 950 nM in data set [6]. The IC50 in data set [7] is 4770 ± 120 nM; in data set [8] (setting [15]), 1710 nM; in data set [8] (setting [16]), 210 to 5400 nM; in data set [11] it was 1600 nM; in data set [12] it was 1100 nM.
